In ChEMBL document CHEMBL1136837, “Unified QSAR approach to antimicrobials. 4. Multi-target QSAR modeling and comparative multi-distance study of the giant components of antiviral drug-drug complex networks” (Bioorg Med Chem, 2009):

How the values were obtained:
[1] = tested on: Human alphaherpesvirus 3; assay: Antiviral activity against Varicella zoster virus; assay type: functional, organism-based
[2] = tested on: Human alphaherpesvirus 1; assay: Antiviral activity against Herpes simplex virus 1; assay type: functional, organism-based
[3] = tested on: Human immunodeficiency virus 1; assay: Antiviral activity against HIV1; assay type: functional, organism-based
[4] = tested on: Human immunodeficiency virus 2; assay: Antiviral activity against HIV2; assay type: functional, organism-based
[5] = tested on: Vaccinia virus; assay: Antiviral activity against Vaccinia virus; assay type: functional, organism-based, Orthopoxvirus vaccinia; conditions: Orthopoxvirus vaccinia
[6] = tested on: Human alphaherpesvirus 2; assay: Antiviral activity against Herpes simplex virus 2; assay type: functional, organism-based
[7] = tested on: Human betaherpesvirus 5; assay: Antiviral activity against Human cytomegalovirus; assay type: functional, organism-based; conditions: Human betaherpesvirus 5
[8] = tested on: Cowpox virus; assay: Antiviral activity against Cowpox virus; assay type: functional, organism-based
[9] = tested on: Human rhinovirus sp.; assay: Antiviral activity against Human rhinovirus; assay type: functional, organism-based
[10] = tested on: Human papillomavirus; assay: Antiviral activity against Human papillomavirus; assay type: functional, organism-based

Nc1nc(N)c(C2CC2)c(OCCOCP(=O)(O)O)n1
IC50 [1]: 1.2 nM | IC50 ([2]; Human alphaherpesvirus 1): 1.2 nM | IC50 [3]: 0.3 nM | IC50 [4]: 0.3 nM | IC50 [5]: 1.2 nM | IC50 ([6]; Human alphaherpesvirus 2): 1.2 nM | IC50 [7]: 1.2 nM

NC1c2[nH]cnc2N=CN1C[C@@H](CO)OCP(=O)(O)O (stereo not given in full)
IC50 [8]: 330000 nM

CCOC(=O)/C=C/[C@H](CCC(N)=O)NC(=O)[C@H](CC1CCCCC1)n1cccc(NC(=O)OCc2ccccc2)c1=O
IC50 [9]: 178 nM

Nc1nc(O)cc(OCCOCP(=O)(O)O)n1
IC50 [2]: 0.025 nM | IC50 ([2]; Human alphaherpesvirus 1): 0.0362 nM | IC50 [4]: 30.2 nM | IC50 [5]: 0.18 nM | IC50 [6]: 0.033 nM | IC50 ([6]; Human alphaherpesvirus 2): 0.0362 nM | IC50 [7]: 0.19 nM

CCOC(=O)/C=C/[C@H](C[C@H]1CCNC1=O)NC(=O)[C@H](Cc1ccccc1)n1cccc(NC(=O)OCc2ccccc2)c1=O
IC50 [9]: 469 nM

Nc1nc(N)n(CCOCP(=O)(O)O)c(=O)c1Cc1ccccc1
IC50 [1]: 0.15 nM | IC50 ([2]; Human alphaherpesvirus 1): 1.2 nM | IC50 [3]: 0.3 nM | IC50 [4]: 0.3 nM | IC50 [5]: 1.2 nM | IC50 ([6]; Human alphaherpesvirus 2): 1.2 nM | IC50 [7]: 0.15 nM

CCCCOC(=O)C[C@H](C)NP(=O)(COCCn1cnc2c(N)ncnc21)N[C@@H](C)C(=O)OCCCC (stereo not given in full)
IC50 [8]: 10000 nM | IC50 [5]: 4400 nM

CCOC(=O)/C=C/[C@H](CCC(N)=O)NC(=O)[C@H](Cc1ccccc1)n1cccc(NC(=O)c2cc(Cl)on2)c1=O
IC50 [9]: 240 nM

CCOC(=O)/C=C/[C@H](C[C@@H]1CCNC1=O)NC(=O)/C=C/c1cccc(Br)c1
IC50 [9]: 1400 nM

CCOC(=O)/C=C/[C@H](C[C@@H]1CCNC1=O)NC(=O)/C=C/c1ccc(C)c(Br)c1
IC50 [9]: 1290 nM

O=c1[nH]c(=O)n([C@@H]2O[C@H](CO)[C@@H](O)[C@@H]2F)cc1I [FIALURIDINE]
IC50 [8]: 240 nM

CCOC(=O)/C=C/[C@H](C[C@@H]1CCNC1=O)NC(=O)C1=Cc2cc(Br)ccc2OC1
IC50 [9]: 180 nM

CCCCCCCCCCCCCCCCOCCCOP(=O)(O)CO[C@H](CO)Cn1ccc(N)nc1=O [BRINCIDOFOVIR]
IC50 [8]: 600 nM

N#CCc1c(N)nc(N)nc1OCCOCP(=O)(O)O
IC50 [1]: 0.11 nM | IC50 ([2]; Human alphaherpesvirus 1): 1.2 nM | IC50 [3]: 0.3 nM | IC50 [4]: 0.3 nM | IC50 [5]: 1.2 nM | IC50 ([6]; Human alphaherpesvirus 2): 1.2 nM | IC50 [7]: 0.15 nM

C=CCc1c(N)nc(N)nc1OCCOCP(=O)(O)O
IC50 [1]: 0.15 nM | IC50 ([2]; Human alphaherpesvirus 1): 1.2 nM | IC50 [3]: 0.3 nM | IC50 [4]: 0.79 nM | IC50 [5]: 1.2 nM | IC50 ([6]; Human alphaherpesvirus 2): 1.2 nM | IC50 [7]: 0.15 nM

Cc1cc(OCCOCP(=O)(O)O)nc(N)n1
IC50 [4]: 0.433 nM

CCOC(=O)/C=C/[C@H](CCC(N)=O)NC(=O)[C@H](Cc1ccccc1)n1cccc(NC(=O)C(C)(C)C)c1=O
IC50 [9]: 518 nM

CCOC(=O)/C=C/[C@H](CCC(N)=O)NC(=O)[C@H](Cc1ccc(F)c(F)c1)n1cccc(NC(=O)OCc2ccccc2)c1=O
IC50 [9]: 3 nM

Nc1nc(N)n(CCOCP(=O)(O)O)c(=O)c1CC(=O)O
IC50 [1]: 0.15 nM | IC50 ([2]; Human alphaherpesvirus 1): 1.2 nM | IC50 [3]: 0.3 nM | IC50 [4]: 0.3 nM | IC50 [5]: 1.2 nM | IC50 ([6]; Human alphaherpesvirus 2): 1.2 nM | IC50 [7]: 0.15 nM

Nc1nc(N)c(Cc2ccccc2)c(OCCOCP(=O)(O)O)n1
IC50 [1]: 0.15 nM | IC50 ([2]; Human alphaherpesvirus 1): 1.2 nM | IC50 [3]: 0.3 nM | IC50 [4]: 0.3 nM | IC50 [5]: 1.2 nM | IC50 ([6]; Human alphaherpesvirus 2): 0.66 nM | IC50 [7]: 0.15 nM

Cc1cn([C@H]2C=C[C@@H](CO)O2)c(=O)[nH]c1=O [STAVUDINE]
IC50 [8]: 446000 nM | IC50 [5]: 446000 nM

CCOC(=O)C(C)NP1(=O)CO[C@@H](Cn2ccc(N)nc2=O)CO1 (stereo not given in full)
IC50 [8]: 26000 nM | IC50 [5]: 15000 nM

CCOC(=O)/C=C/[C@H](CCC(N)=O)NC(=O)Cn1cccc(NC(=O)OCc2ccccc2)c1=O
IC50 [9]: 10000 nM

CCOC(=O)/C=C/[C@H](CCC(N)=O)NC(=O)[C@H](Cc1ccc(F)cc1)n1cccc(NC(=O)OCc2ccccc2)c1=O
IC50 [9]: 14 nM

CCOC(=O)/C=C/[C@H](C[C@@H]1CCNC1=O)NC(=O)c1ccc2ccccc2c1
IC50 [9]: 150 nM

Nc1nc(N)c(CC(=O)O)c(OCCOCP(=O)(O)O)n1
IC50 [1]: 0.15 nM | IC50 ([2]; Human alphaherpesvirus 1): 1.2 nM | IC50 [3]: 0.3 nM | IC50 [4]: 0.3 nM | IC50 [5]: 1.2 nM | IC50 ([6]; Human alphaherpesvirus 2): 1.2 nM | IC50 [7]: 0.15 nM

Nc1nc(NC2CC2)c2ncn(CCOCP(=O)(O)O)c2n1
IC50 [8]: 28000 nM

C=CCNc1nc(N)nc2c1ncn2CCOCP(=O)(O)O
IC50 [8]: 115000 nM | IC50 [5]: 25000 nM

O=C(O)CS(=O)(=O)c1ccc(-c2cccc(C(=O)NCc3cccc4ccccc34)c2)cc1
IC50 [10]: 4.3 nM

O=C(O)CS(=O)(=O)c1ccc(-c2ccc(C(=O)N(Cc3ccccc3)Cc3ccccc3)cc2)cc1
IC50 [10]: 1100 nM

Cc1cn([C@H]2C[C@H](N=[N+]=[N-])[C@@H](CO)O2)c(=O)[nH]c1=O [ZIDOVUDINE]
IC50 [3]: 5 nM | IC50 [4]: 5 nM

O=C(O)CS(=O)(=O)c1ccc(-c2cccc(CC(=O)Nc3ccccc3)c2)cc1
IC50 [10]: 110 nM

Nc1nc(NCC(F)(F)F)c2ncn(CCOCP(=O)(O)O)c2n1
IC50 [8]: 270000 nM | IC50 [5]: 42000 nM

CCOC(=O)/C=C/[C@H](C[C@@H]1CCNC1=O)NC(=O)[C@H](Cc1ccccc1)n1cccc(NC(=O)OCc2ccccc2)c1=O
IC50 [9]: 3 nM

Nc1nc(N)n(CCOCP(=O)(O)O)c(=O)c1C1CC1
IC50 ([2]; Human alphaherpesvirus 1): 1.2 nM | IC50 [3]: 0.3 nM | IC50 [4]: 0.3 nM | IC50 [5]: 1.2 nM | IC50 ([6]; Human alphaherpesvirus 2): 0.12 nM | IC50 [7]: 0.15 nM

O=C(O)CS(=O)(=O)c1ccc(-c2ccc(C(=O)NCc3ccccc3)cc2)cc1
IC50 [10]: 510 nM
